This assay has as its system juvenile pigs. Briefly: In vivo efficacy of tablets containing chenodeoxycholate/propyl gallate/calcitonin mixture in juvenile pigs (blood calcium). The note with it: 400 iu s.c., six hour period.

Protocol: Blood calcium levels are measured at intervals over a six hour period and mean change in AUC of plasma calculated is calculated in h·mmol/l.

Turning to salmon calcitonin, the “AUC (mean change in AUC of plasma calcium)” value was -1.79 mmol·h/L.

For the origin of these results see patent US8314058B2, “Uptake of macromolecules” (Axcess Limited, priority 2003, dated 2012).
